Legend:
MCF-7 cells = test: Growth/viability of human mammary carcinoma cells; assay type: cell-based; conditions: MCF7, 96 h, 4 days, read-out: growth decrease of MCF-7 cells
Protocol: Human mammary carcinoma cells (MCF-7) were cultured alone (controls) and with arginine butyrate or isobutyramide for 4 days. Viability was assayed by FACS after incubation with a fluorescent dye taken up by viable cells (FIG. 6). Growth was decreased by 50% with isobutyramide at 1.0 mM, about 60% with arginine butyrate at 0.5 mM, and greater than 90% with arginine butyrate at 1.0 mM.

anemic baboon = test: In vivo reticulocyte proliferation, globin expression and blood counts in anemic (phlebotomized) baboons
Summary of the method: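 Juvenile female baboons kept at 7.0–7.5 g/dl haemoglobin by daily phlebotomy got compounds sequentially, with wash-out until reticulocytes returned to baseline; each animal served as its own control. F-reticulocytes were measured by dual-antibody FACS, and γ/(γ+β) globin synthesis by ³H-leucine labelling and column chromatography. Blood counts were taken, unadjusted for phlebotomy.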

[1] = tested on: hemoglobin polymerization; conditions: artificially deoxygenated blood; cited from earlier work
[2] = tested on: BFU-e (burst forming unit-erythroid); test: BFU-e stimulation (colony growth) in cultured peripheral blood mononuclear cells; assay type: cell-based; conditions: Homo sapiens, PBMC, read-out: more BFU-e colonies from the same number of mononuclear cells than control cultures
Protocol: Peripheral blood was collected from normal volunteers and patients with anemia due to sickle cell disease or thalassemia Mononuclear cells were isolated by Ficoll-Hypaque (Pharmacia Biotech; Piscataway, N.J.) centrifugation and cultured in Iscove's Modified Dulbecco's Media (IMDM; GIBCO/BRL; Grand Island, N.Y.) supplemented with 10% fetal calf serum, 300 μg/ml glutamine, 3 units/ml IL 3 (Amgen; Thousand Oaks, Calif.), and 2 units/ml erythropoietin (Terry Fox Labs; Vancouver, B.C.). Chemical compounds were obtained from Sigma Chemical (St. Louis, Mo.) or Aldrich Chemical (Milwaukee, Wis.), unless otherwise indicated, and formulated into pharmaceutical compositions by dissolving in aqueous solutions of media or sterile water pH adjusted to about 7.4. Solutions were sterilized by passage at least once through 0.22 micron Nalgene filters and added to cell cultures at final concentrations that are pharmaceutically achievable in vivo (typically between about 0.1 mM to 2.0 MM). Cells were incubated with compounds for between 13-14 days at 37° C. in humidified 5% CO2, and fed and passed, as necessary. Colony growth, proportion of fetal globin-expressing cells and amounts of fetal globin production were assayed. Results are presented in Table 1 as BFU-e stimulation (colony growth). […]

[3] = 1,000 to 1,500 mg/kg/day i.v., 4 days

SMILES: CCCC(=O)O [AB, arginine butyrate]
- inhibition at 500 µM (MCF-7 cells; 0.5 mM): ~60%
- inhibition at 1000 µM (MCF-7 cells; 1.0 mM): > 90%
- response to treatment (anemic baboon; 1,000 mg/kg for 5 days): had not responded
- response to treatment (anemic baboon; 2,000 mg/kg for 3 days): had not responded

SMILES: O=C(O)COc1ccccc1 [PAA, Phenoxyacetic acid]
- inhibition of polymerization [1]: inhibit polymerization
- duration of effect after drug was discontinued (anemic baboon; 1,500 mg/kg infused daily, 5 days): maintained itself for two days after drug was discontinued and slowly declined thereafter
- Total hemoglobin (anemic baboon; 1,500 mg/kg infused daily, 5 days (FIG. 7), from 6.8): 7.6 grams/dl
- reticulocytes (anemic baboon; 1,500 mg/kg infused daily, 5 days, from 1.9%): 9.2 % of all red blood cells
- white blood cell count (anemic baboon; 1,500 mg/kg infused daily, 5 days, from 6.9): 9.5 10^3 cells/μl
- packed red blood cell volume (anemic baboon; 1,500 mg/kg infused daily, 5 days, from 22%): 25.4%
- Fetal reticulocytes (anemic baboon; 500, 1,000, 1,500 mg/kg infused, after 3 days (FIG. 9), from 12%): 27%
- Fetal reticulocytes, increase above baseline (anemic baboon; [3]): 800%
- Fetal reticulocytes, increase above baseline (fold) (anemic baboon; [3]): eight-fold
- increase in output of fetal globin production over basal levels (anemic baboon; [3]): 4,000%
- Fetal reticulocytes (anemic baboon; 1,000 to 1,500 mg/kg/day i.v., 4 days, another juvenile baboon, from 2%): 16%
- Fetal globin protein synthesis (anemic baboon; 1,000 to 1,500 mg/kg/day i.v., 4 days, from 0%): 5%
- activation at 100 µM [2]: 135%
